In ChEMBL document CHEMBL1201862, “PubChem BioAssay data set” (2004):
The source made the active and inactive calls.

Experiments:
[1] = Luminescence Cell-Based Dose Confirmation HTS to Identify Activators of 5'UTR Stem-Loop Driven Alpha-Synuclein mRNA Translation in H4 Neuroglioblastoma Cells. [Related pubchem assays: 1829 (Project Summary), 1814 (Primary HTS)]; format: functional
[2] = Luminescence Cell-Based Dose Response HTS to Identify Activators of Luciferase Translation or Activity in H4 […] Cells. [Related pubchem assays: 1829 (Project Summary), 1814 (Primary HTS)]; format: functional
H4 = assay: Luminescence Cell-Based Dose Response HTS to Identify Activators of 5'UTR Stem-Loop Driven Prion Protein mRNA Translation in H4 Neuroglioblastoma Cells. [Related pubchem assays: 1829 (Project Summary), 1814 (Primary HTS)]; format: functional; settings: Homo sapiens
H9c2 = assay: cells; format: functional, cell-based; settings: Rattus norvegicus, H9c2, Myocardium;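 note: confirmatory concentration-response retest of ultra-high-throughput screening hits for modulation of myocardial damage; cell death induced by hydrogen peroxide oxidative stress; compound pretreatment for 60 min then peroxide exposure for 2 h; potency is for protecting the cells against peroxide damage rather than for killing them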
[3] = test system: Streptococcus sp. 'group A'; assay: Streptococcus pyogenes SK(-)GAS viability under kanamycin – luminescence, BacTiterGlo, confirmation, counter-screen for streptokinase expression inhibitor project, dose response (AID 1900); format: functional, organism-based
Streptokinase A = molecular target: T1, Streptokinase A (Streptococcus pyogenes serotype M1, UniProt P10520); assay: viability-normalized secreted streptokinase activity reduction – plasminogen activation absorbance, OD405, dose response (AID 1914); format: functional, Streptococcus pyogenes M1 GAS;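 note: secreted streptokinase activity via plasminogen activation per viability signal from cell pellet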
T1 sequence (P10520 whole entry): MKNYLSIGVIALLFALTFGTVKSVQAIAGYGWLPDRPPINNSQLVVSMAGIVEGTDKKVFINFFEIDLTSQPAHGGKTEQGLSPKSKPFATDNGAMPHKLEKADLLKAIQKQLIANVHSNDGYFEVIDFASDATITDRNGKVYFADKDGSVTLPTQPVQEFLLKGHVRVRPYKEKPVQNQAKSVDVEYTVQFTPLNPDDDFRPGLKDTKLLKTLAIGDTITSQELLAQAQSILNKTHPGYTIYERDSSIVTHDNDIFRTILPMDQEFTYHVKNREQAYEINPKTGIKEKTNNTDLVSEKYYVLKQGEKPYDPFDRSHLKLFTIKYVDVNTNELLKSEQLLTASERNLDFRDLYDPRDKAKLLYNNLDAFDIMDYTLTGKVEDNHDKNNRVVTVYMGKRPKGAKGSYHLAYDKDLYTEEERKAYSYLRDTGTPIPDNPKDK

[4] = Trypanosoma cruzi growth suppression in host cells – NIH3T3 host cells, beta-gal luminescence, confirmation (AID 2044); format: functional, cell-based;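 note: intracellular parasites grown in NIH/3T3 mouse fibroblasts as host cells; luminescent beta-galactosidase reporter signal from transgenic T. cruzi replicating inside host cells; inhibitors lower the luminescence signal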
[5] = NIH3T3 cell viability loss – ATP luminescence, mouse fibroblasts, counter-screen, dose response (AID 2010); format: functional, cell-based;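 note: cells exposed to compound for about 90 hours before reading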
Streptococcus = assay: GAS UMAA2166 growth inhibition – luminescence, BacTiterGlo, counter-screen for streptokinase expression inhibitor project, dose response (AID 1915); format: functional, organism-based;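 note: potency for reduction of bacterial viability or growth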
Cytochrome P450 3A4 = Cytochrome P450 3A4 (Homo sapiens, UniProt P08684); settings: Potency;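 note: confirmatory qHTS run detecting inhibitors and substrates of CYP3A4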
INS1 = assay: INS-1E survival protection against cytokine death – cell-based, luminescence, retest, dose response (AID 449756); format: functional; settings: Rattus norvegicus;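 note: cell death triggered by IL-1 beta plus TNF-alpha plus IFN-gamma mixture; protective hits raise ATP signal compared with cytokine alone wells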
[6] = intracellular Trypanosoma cruzi inhibitors in host cells – cell-based, plate reader, cherry-pick samples, set 3, dose response (AID 651818); format: functional;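 note: compounds incubated with infected cells for about four days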
[7] = molecular target: T2, Polyadenylate-binding protein 1 (Homo sapiens, UniProt P11940); assay: MLLE binding blockers, Cy5 peptide tracer – biochemical, fluorescence polarization, Cy5-PAM2 peptide, secondary, miRNA deadenylation inhibitor project, dose response (AID 602260); format: functional; settings: read-out: IC50_Mean
[8] = molecular target: T2, Polyadenylate-binding protein 1; assay: MLLE domain peptide-binding blockers, IC50 – biochemical, fluorescence polarization, FITC-PAM2 peptide, dose response (AID 602259); format: functional; settings: read-out: IC50_Mean

Sequence of Cytochrome P450 3A4 (P08684 whole entry): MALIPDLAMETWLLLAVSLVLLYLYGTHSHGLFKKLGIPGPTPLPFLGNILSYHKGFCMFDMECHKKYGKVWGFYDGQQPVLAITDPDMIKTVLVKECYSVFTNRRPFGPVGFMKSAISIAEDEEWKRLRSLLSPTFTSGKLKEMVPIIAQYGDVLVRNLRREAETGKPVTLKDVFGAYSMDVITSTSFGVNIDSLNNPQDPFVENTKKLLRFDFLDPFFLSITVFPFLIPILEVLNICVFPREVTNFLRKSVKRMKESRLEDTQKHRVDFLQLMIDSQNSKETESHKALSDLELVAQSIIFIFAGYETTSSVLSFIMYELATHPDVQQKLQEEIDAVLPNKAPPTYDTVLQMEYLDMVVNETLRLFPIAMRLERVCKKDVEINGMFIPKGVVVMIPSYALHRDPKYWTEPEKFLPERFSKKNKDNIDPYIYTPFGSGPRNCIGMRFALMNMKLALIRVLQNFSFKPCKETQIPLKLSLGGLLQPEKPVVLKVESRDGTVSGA
T2 sequence (P11940 whole entry, the tested form may be a part): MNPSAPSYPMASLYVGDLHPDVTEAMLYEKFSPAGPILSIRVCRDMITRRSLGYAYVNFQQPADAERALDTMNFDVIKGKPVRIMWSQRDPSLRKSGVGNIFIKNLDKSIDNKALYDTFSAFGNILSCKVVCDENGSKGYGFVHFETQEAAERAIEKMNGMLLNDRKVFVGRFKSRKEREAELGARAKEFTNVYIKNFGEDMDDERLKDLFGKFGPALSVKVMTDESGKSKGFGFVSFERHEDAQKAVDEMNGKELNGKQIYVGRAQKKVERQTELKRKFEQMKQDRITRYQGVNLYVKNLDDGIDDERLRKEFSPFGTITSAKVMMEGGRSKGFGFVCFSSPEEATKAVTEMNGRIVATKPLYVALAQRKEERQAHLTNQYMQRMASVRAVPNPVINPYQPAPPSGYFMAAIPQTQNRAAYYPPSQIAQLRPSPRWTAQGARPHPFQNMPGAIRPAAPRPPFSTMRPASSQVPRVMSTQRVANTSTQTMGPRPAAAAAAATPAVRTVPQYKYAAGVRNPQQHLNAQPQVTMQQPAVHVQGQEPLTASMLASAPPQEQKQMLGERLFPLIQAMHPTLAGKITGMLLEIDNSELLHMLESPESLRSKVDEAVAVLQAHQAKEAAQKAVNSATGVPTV

CCc1nnc2c3cnn(-c4ccccc4)c3ncn12
EC50 [1]: 5.12 µM (active) | EC50 [2]: 113 µM (active) | EC50 (H4): > 120 µM (not active)

CN(C)S(=O)(=O)c1ccc(NC(=O)COC(=O)Cn2[nH]c(=O)c3ccccc3c2=O)cc1
IC50 (H9c2): > 79 µM (inactive)

Cc1cccc(OCCn2c(NC(=O)c3ccco3)nc3ccccc32)c1
EC50 [3]: 4.74 µM (active) | EC50 (Streptokinase A): > 150 µM (not active) | EC50 [4]: 1.69 µM (active) | EC50 [5]: 29.8 µM (active) | EC50 (Streptococcus): 7.32 µM (active) | IC50 (H9c2): 11 µM (active)

Cc1ccc2[nH]c(SCc3nc(O)c4ccccc4n3)nc2c1
IC50 (H9c2): > 79 µM (inactive)

BrC1C(Br)C(Br)C(Br)C(Br)C1Br (stereo unspecified)
AC50 (Cytochrome P450 3A4): 15.8 µM (inconclusive)

C=C1CC[C@@H]2O[C@@]2(C)CC[C@H]2[C@H]1CC2(C)C
AC50 (Cytochrome P450 3A4): 39.8 µM (inconclusive)

COc1ccc2occ(C(=O)c3coc4ccc(O)c(CN(C)C)c34)c2c1
IC50 (H9c2): > 79 µM (inactive)

COC(=O)c1ccc(C23CC4(C2)[C@H](CN(C)[C@@H]4c2ccccc2)C3c2ccccc2)cc1 (stereo partly specified)
AC50 (Cytochrome P450 3A4): 12.6 µM (inconclusive)

CCC1OC(=O)C(C)[C@@H](O[C@H]2C[C@@](C)(OC)C(O)C(C)O2)C(C)[C@@H](O[C@@H]2OC(C)CC(N(C)C)C2O)[C@@](C)(O)CC(C)C(=O)[C@@H](C)C(O)[C@]1(C)O (stereo partly specified)
AC50 (Cytochrome P450 3A4): 31.6 µM (inconclusive)

Cc1nc2ccccc2c(=O)[nH]1
IC50 (H9c2): > 79 µM (inactive)

Cc1nc(/N=N\c2cc(S(=O)(=O)O)c3cc([N+](=O)[O-])cc(S(=O)(=O)O)c3c2)c(COP(=O)(O)O)c(C=O)c1O
AC50 (Cytochrome P450 3A4): 15.8 µM (inconclusive)

CC(Cc1cccs1)NC(=O)NC1CCCCC1 (stereo unspecified)
EC50 [1]: > 60 µM (not active) | EC50 [2]: 68.9 µM (active) | EC50 (H4): 39.8 µM (active)

CCCCC(=O)Nc1cc(C)c2c(=O)oc3ccccc3c2n1
IC50 (H9c2): > 79 µM (inactive)

Cc1c(OCC(=O)NCCN2CCOCC2)ccc2c1oc(=O)c1ccccc12
IC50 (H9c2): > 79 µM (inactive)

Cc1cc(C2(c3cc(C)c(O)cc3C)OS(=O)(=O)c3ccccc32)c(C)cc1O
AC50 (Cytochrome P450 3A4): 7.94 µM (inconclusive)

Cc1cc(Nc2nc3ccccc3nc2Cl)n(-c2ccc([N+](=O)[O-])cc2)n1
EC50 [4]: 2.24 µM (active) | EC50 [5]: > 60 µM (not active) | AC50 (INS1): 8.83 µM (active)

CCCc1cc(C(=O)NCC(C)C)no1
EC50 [1]: 14.8 µM (active) | EC50 [2]: 22.9 µM (active)

COc1ccc2cc(-c3[nH]ncc3CN3CCCCO3)ccc2c1
EC50 [1]: > 120 µM (not active) | EC50 [2]: 25 µM (active) | EC50 (H4): > 60 µM (not active)

C[C@@H]1CN([C@@H](C)CO)C(=O)c2cccc(NC(=O)Nc3ccccc3)c2O[C@@H]1CN(C)S(=O)(=O)c1cccs1
AC50 [6]: 14.8 µM (active)

COC(=O)c1cc2ccccn2c2c(C(=O)OC)c(C(=O)OC)cc1-2
IC50 (H9c2): > 79 µM (inactive)

Cn1nc(C(=O)Nc2nc(-c3ccccn3)cs2)c2ccccc2c1=O
IC50 (H9c2): > 79 µM (inactive)

C[C@@H]1CN([C@@H](C)CO)C(=O)c2cccc(NC(=O)Nc3ccccc3)c2O[C@H]1CN(C)Cc1ccc(C(=O)Nc2ccccc2N)cc1
AC50 [6]: 0.869 µM (active)

O=C(CSc1nc(O)c(Cc2ccccc2)c(O)n1)c1ccccc1
EC50 [1]: 14.7 µM (active) | EC50 [2]: > 120 µM (not active) | EC50 (H4): 14.4 µM (active)

Cc1cc(Nc2nc3ccccc3nc2Cl)n(-c2ccccc2)n1
EC50 [1]: > 120 µM (not active) | EC50 [2]: > 120 µM (not active) | EC50 (H4): > 120 µM (not active)

CCCCCCCCCc1ccc(O)cc1 [4-NONYLPHENOL]
AC50 (Cytochrome P450 3A4): 31.6 µM (inconclusive)

C[C@@H]1CN([C@H](C)CO)C(=O)Cc2cc(NS(=O)(=O)c3ccccc3)ccc2O[C@@H]1CN(C)Cc1ccc(-c2ccccc2)cc1
AC50 [6]: 3.26 µM (active)

COCCNC(=O)Cc1c(C)c2c(cc(C)c3c(C(C)(C)C)coc32)oc1=O
EC50 [1]: > 120 µM (not active) | EC50 [2]: 10.1 µM (active) | EC50 (H4): > 120 µM (not active)

C[C@H]1CN([C@@H](C)CO)C(=O)c2cc(NC(=O)Nc3cccc4ccccc34)ccc2O[C@H]1CN(C)Cc1ccc(-c2ccccc2)cc1
AC50 [6]: 5.22 µM (active)

O=C(NC(=S)NC1CCSC1=O)c1cccc([N+](=O)[O-])c1 (stereo unspecified)
IC50 [7]: > 66 µM (inactive) | IC50 [8]: > 66 µM (inactive)

CCOC(=O)CC1=C(C(=O)OCC)C(c2ccc(C)o2)C(C#N)=C(N)O1 (stereo unspecified)
IC50 [7]: > 66 µM (inactive) | IC50 [8]: 32 µM (inactive)

C[C@@H]1CN([C@@H](C)CO)C(=O)Cc2cc(NC(=O)Cc3ccccc3)ccc2O[C@@H]1CN(C)Cc1ccc(C(=O)Nc2ccccc2N)cc1
AC50 [6]: 3.09 µM (active)

COc1ccc(-n2ccnc(SCC(=O)NC3CCCC3)c2=O)cc1OC
IC50 [7]: > 66 µM (inactive) | IC50 [8]: > 66 µM (inactive)

COc1cc(C=O)c([N+](=O)[O-])cc1OC
AC50 (Cytochrome P450 3A4): 25.1 µM (inconclusive)

C[C@H](CO)N1C[C@H](C)[C@@H](CN(C)S(=O)(=O)c2ccccc2)Oc2c(NC(=O)Nc3ccccc3)cccc2C1=O
AC50 [6]: 20 µM (inactive)

C[C@@H]1CN([C@@H](C)CO)C(=O)c2cccc(NC(=O)CCCCCC(=O)Nc3ccccc3N)c2O[C@@H]1CN(C)Cc1ccc(Oc2ccccc2)cc1
AC50 [6]: 2.17 µM (active)

CC(=O)Nc1ccc(SCC(=O)Nc2ccccc2Oc2ccccc2)cc1
IC50 [7]: > 66 µM (inactive) | IC50 [8]: > 66 µM (inactive)

C[C@@H]1CN([C@@H](C)CO)C(=O)c2cccc(NS(=O)(=O)c3ccc(Cl)cc3)c2O[C@@H]1CN(C)C(=O)Nc1ccc(C(F)(F)F)cc1
AC50 [6]: 3.58 µM (active)

CC(C)CCn1cc[n+](C2=C([N-]S(=O)(=O)c3ccccc3)C(=O)c3ccccc3C2=O)c1
AC50 (INS1): 4.76 µM (active)

Cc1ccc(-c2nnc(O)c3ccccc23)cc1N
IC50 (H9c2): 34.5 µM (inactive)

Cc1cc(NS(=O)(=O)c2ccc(NC(=S)NC(=O)c3ccc(Br)cc3)cc2)no1
IC50 [7]: > 66 µM (inactive) | IC50 [8]: > 66 µM (inactive)

N#Cc1ccc(C23CC4(C2)[C@H](CN(Cc2ccc(C(F)(F)F)cc2)[C@@H]4c2ccccc2)C3c2ccccc2)cc1 (stereo partly specified)
AC50 (Cytochrome P450 3A4): 25.1 µM (inconclusive)

C[C@H]1CN([C@@H](C)CO)C(=O)Cc2cc(N(C)C)ccc2O[C@@H]1CN(C)Cc1ccc(-c2ccccc2)cc1
AC50 [6]: 2.21 µM (active)

COc1ccc(-c2csc(NC(=O)CSc3n[nH]c(N)n3)n2)cc1
IC50 [7]: > 66 µM (inactive) | IC50 [8]: > 66 µM (inactive)

C=C1CCC(=O)C(C)CCC2C1CC2(C)C (stereo unspecified) [DIHYDROCARYOPHYLLEN-5-ONE]
AC50 (Cytochrome P450 3A4): 25.1 µM (inconclusive)

Cc1ccc(NC(=O)CN2C(=O)S/C(=C/c3ccncc3)C2=O)cc1
IC50 [7]: > 66 µM (inactive) | IC50 [8]: > 66 µM (inactive)

COC(c1ccccc1)C(C)C(OC)C(C)C(OC)C(C)C(C)=O (stereo unspecified)
AC50 (Cytochrome P450 3A4): 3.98 µM (inconclusive)

Cn1c(-c2ccc(F)cc2)cnc1SCC(=O)Nc1ccccc1N1CCOCC1
EC50 (H4): 0.244 µM (active)

C[C@@H]1CN([C@@H](C)CO)C(=O)c2cccc(NC(=O)CCCCCC(=O)Nc3ccccc3N)c2O[C@H]1CN(C)Cc1ccc(Cl)c(Cl)c1
AC50 [6]: 3.06 µM (active)

Cc1ccc(S(=O)(=O)Nc2ccc3c(c2)CC(=O)N([C@H](C)CO)C[C@@H](C)[C@@H](CN(C)Cc2ccc(Oc4ccccc4)cc2)O3)cc1
AC50 [6]: 2.03 µM (active)
